System: brain of rats subjected to closed-head diffuse severe TBI (sTBI)
Assay: HPLC of energy metabolites, antioxidants and oxidative/nitrosative stress biomarkers in brain, dose study after sTBI (Example 3)
Format: in vivo, rat
From the text: Male Wistar rats (n=160) of 300-350 g body weight were used in this study.
1994, 80: 291-300. This model causes diffuse axonal injury and it is able to reproduce the physical and mechanical characteristics of the diffuse TBI in humans.
Rats were placed prone on a bed of specific polyurethane foam inserted in a special container. This foam dissipates the major part of the potential energy (deriving from the mechanical forces) and prevents any rebound of the animal after the impact that could produce spinal damages.
These time points are coincident with the worst biochemical derangement (2 days) or, in the case of a mildly injured brain, with a full metabolic recovery (7 days).
The drug treatment consisted in a subcutaneous injection of 0.5 ml of LMW-DS (Tikomed) and administered at 3 different concentrations (1, 5 and 15 mg/kg body weight), according to the schematic protocol described below.
Sham-operated animals underwent the same procedure of anesthesia but TBI and were used as the control group.
Rats used in this study were divided into 4 groups in order to carry out a study on the efficacy of three different concentrations of LMW-DS at two different times post TBI. As subsequently specified, in each group there were animals subjected to a specific treatment for metabolic analyses and other animals intended to histo-morphological studies, according to the procedures described below.
Rats subjected to sTBI and receiving a single administration of LMW-DS after 30 minutes post-TBI, with sacrifice at 2 days post-TBI. Animals were divided in the following subgroups:
Rats subjected to sTBI and receiving a single administration of LMW-DS after 30 minutes post-TBI, with sacrifice at 7 days post-TBI. Animals were divided in the following subgroups:
Rats (n=12) subjected to sTBI and receiving repeated administrations of the maximal dose of LMW-DS (15 mg/kg b.w.) after 30 minutes, 3 days and 5 days post-TBI, with sacrifice at 7 days post-TBI. Four additional rats were used for the histo-morphological studies. Total rats in this group: n=16
To minimize metabolite loss, an in vivo craniectomy was performed in all animals during anesthesia. The rat skull was carefully removed, the brain was exposed, sharply cut along the sagittal fissure and the two hemispheres were separated. The hemispheres dedicated to biochemical analyses were freeze-clamped by aluminum tongues pre-cooled in liquid nitrogen and then immersed in liquid nitrogen. The freeze-clamping procedure was introduced to accelerate freezing of the tissue, thus minimizing potential metabolite loss.
Tissue homogenization for metabolite analyses was effected as described below. After the wet weight (w.w.) determination, the frozen hemispheres were placed into 7 ml of ice-cold, nitrogen-saturated, precipitating solution (1:10 w/v) composed by CH3CN+10 mM KH2PO4, pH 7.40, (3:1; v:v), and the homogenization was performed using an Ultra-Turrax homogenizer set at 24,000 rpm/min (Janke & Kunkel, Staufen, Germany). After centrifugation at 20,690×g, for 10 min at 4° C., the clear supernatants were saved, pellets were supplemented with an aliquot of 10 mM KH2PO4 and homogenized again as described above and saved overnight at −20° C. in order to obtain a complete recovery of aqueous phase from tissue. A second centrifugation was performed (20,690×g, for 10 min at 4° C.) and supernatants combined with those previously obtained were extracted by vigorous agitation with a double volume of HPLC-grade CHCl3 and centrifuged as above.

[1] = rats 2 days post-TBI, single 15 mg/kg b.w. 30 min after trauma
[2] = rats 7 days post-sTBI, repeated 15 mg/kg b.w.
[3] = rats 7 days post-sTBI, single 1 mg/kg b.w.
[4] = rats 7 days post-sTBI, single 5 mg/kg b.w.
[5] = rats 7 days post-sTBI, single 15 mg/kg b.w.

sodium salt of dextran sulfate [LMW-DS]
GUANOSINE concentration in brain homogenate [1]: 24.35 ± 4.05 nmol/g w.w.
HYPDXANTHINE concentration in brain homogenate [1]: 6.82 ± 1.12 nmol/g w.w.
INOSINE concentration in brain homogenate [1]: 142.91 ± 18.63 nmol/g w.w.
URACIL concentration in brain homogenate [1]: 15.55 ± 3.04 nmol/g w.w.
β-PSEUDOURIDINE concentration in brain homogenate [1]: 7.84 ± 1.57 nmol/g w.w.
ADENOSINE concentration in brain homogenate [2]: 40.84 ± 30.25 nmol/g w.w.
ADP-Ribose concentration in brain homogenate [2]: 13.23 ± 3.32 nmol/g w.w.
AMP concentration in brain homogenate [2]: 43.12 ± 3.39 nmol/g w.w.
Acetyl-CoA concentration in brain homogenate [2]: 37.91 ± 6.46 nmol/g w.w.
CMP concentration in brain homogenate [2]: 31.21 ± 13.28 nmol/g w.w.
CoA-SH concentration in brain homogenate [2]: 45.76 ± 5.87 nmol/g w.w.
GDP concentration in brain homogenate [2]: 109.06 ± 12.46 nmol/g w.w.
GUANINE concentration in brain homogenate [2]: 3.32 ± 1.41 nmol/g w.w.
GUANOSINE concentration in brain homogenate [2]: 19.66 ± 4.10 nmol/g w.w.
INOSINE concentration in brain homogenate [2]: 139.26 ± 15.62 nmol/g w.w.
Malonyl-CoA concentration in brain homogenate [2]: 12.56 ± 2.27 nmol/g w.w.
NADPH concentration in brain homogenate [2]: 11.21 ± 2.60 nmol/g w.w.
NO2 concentration in brain homogenate [2]: 130.69 ± 28.31 nmol/g w.w.
UDP-GIcNac concentration in brain homogenate [2]: 86.42 ± 29.89 nmol/g w.w.
UDP-Gal concentration in brain homogenate [2]: 135.15 ± 9.29 nmol/g w.w.
UDP-GalNac concentration in brain homogenate [2]: 16.50 ± 4.73 nmol/g w.w.
URACIL concentration in brain homogenate [2]: 24.13 ± 4.96 nmol/g w.w.
URIDINE concentration in brain homogenate [2]: 97.21 ± 23.03 nmol/g w.w.
XANTHINE concentration in brain homogenate [2]: 11.24 ± 3.18 nmol/g w.w.
ADP concentration in brain homogenate [3]: 286.78 ±38.19 nmol/g w.w.
AMP concentration in brain homogenate [3]: 43.13 ± 3.39 nmol/g w.w.
ASCORBIC ACID concentration in brain homogenate [3]: 2177.22 ± 262.21 nmol/g w.w.
CDP choline concentration in brain homogenate [3]: 6.26 ± 2.01 nmol/g w.w.
CMP concentration in brain homogenate [3]: 25.41 ± 10.81 nmol/g w.w.
CYTIDINE concentration in brain homogenate [3]: 29.67 ± 10.44 nmol/g w.w.
CYTOSINE concentration in brain homogenate [3]: 16.03 ± 3.44 nmol/g w.w.
GDP concentration in brain homogenate [3]: 121.72 ± 13.91 nmol/g w.w.
GMP concentration in brain homogenate [3]: 113.06 ± 53.51 nmol/g w.w.
GSH concentration in brain homogenate [3]: 1627.30 ± 214.51 nmol/g w.w.
GUANINE concentration in brain homogenate [3]: 6.86 ± 2.92 nmol/g w.w.
GUANOSINE concentration in brain homogenate [3]: 19.11 ± 3.98 nmol/g w.w.
NADH concentration in brain homogenate [3]: 8.20 ± 1.41 nmol/g w.w.
NAD^+ concentration in brain homogenate [3]: 268.14 ± 37.97 nmol/g w.w.
NO3 concentration in brain homogenate [3]: 153.62 ± 26.24 nmol/g w.w.
UDP-GIcNac concentration in brain homogenate [3]: 85.36 ± 29.53 nmol/g w.w.
UDP-Gal concentration in brain homogenate [3]: 130.20 ± 8.95 nmol/g w.w.
UDP-GalNac concentration in brain homogenate [3]: 15.85 ± 4.54 nmol/g w.w.
XANTHINE concentration in brain homogenate [3]: 12.53 ± 3.54 nmol/g w.w.
ADP concentration in brain homogenate [4]: 289.27 ± 38.52 nmol/g w.w.
AMP concentration in brain homogenate [4]: 59.50 ± 4.68 nmol/g w.w.
ASCORBIC ACID concentration in brain homogenate [4]: 2195.87 ± 264.45 nmol/g w.w.
CDP choline concentration in brain homogenate [4]: 10.37 ± 3.33 nmol/g w.w.
CYTIDINE concentration in brain homogenate [4]: 26.51 ± 9.33 nmol/g w.w.
CYTOSINE concentration in brain homogenate [4]: 12.67 ± 2.72 nmol/g w.w.
GMP concentration in brain homogenate [4]: 101.42 ± 48.00 nmol/g w.w.
GUANINE concentration in brain homogenate [4]: 7.92 ± 3.37 nmol/g w.w.
GUANOSINE concentration in brain homogenate [4]: 33.42 ± 6.96 nmol/g w.w.
NADH concentration in brain homogenate [4]: 8.83 ± 1.26 nmol/g w.w.
NADPH concentration in brain homogenate [4]: 12.30 ± 2.86 nmol/g w.w.
NADP^+ concentration in brain homogenate [4]: 24.45 ± 8.97 nmol/g w.w.
UDP concentration in brain homogenate [4]: 44.19 ± 6.22 nmol/g w.w.
UDP-GIcNac concentration in brain homogenate [4]: 85.14 ± 29.45 nmol/g w.w.
UDP-Gal concentration in brain homogenate [4]: 132.66 ± 9.12 nmol/g w.w.
UDP-Glc concentration in brain homogenate [4]: 58.10 ± 11.81 nmol/g w.w.
XANTHINE concentration in brain homogenate [4]: 14.33 ± 4.05 nmol/g w.w.
ADENOSINE concentration in brain homogenate [5]: 55.95 ± 41.44 nmol/g w.w.
ADP concentration in brain homogenate [5]: 276.83 ± 36.87 nmol/g w.w.
ADP-Ribose concentration in brain homogenate [5]: 19.21 ± 4.82 nmol/g w.w.
Acetyl-CoA concentration in brain homogenate [5]: 38.60 ± 6.57 nmol/g w.w.
CDP choline concentration in brain homogenate [5]: 10.06 ± 3.23 nmol/g w.w.
CYTIDINE concentration in brain homogenate [5]: 33.06 ± 11.63 nmol/g w.w.
CYTOSINE concentration in brain homogenate [5]: 13.87 ± 2.98 nmol/g w.w.
GDP concentration in brain homogenate [5]: 122.07 ± 13.95 nmol/g w.w.
GUANINE concentration in brain homogenate [5]: 5.27 ± 2.24 nmol/g w.w.
GUANOSINE concentration in brain homogenate [5]: 20.91 ± 4.36 nmol/g w.w.
NADP^+ concentration in brain homogenate [5]: 23.75 ± 8.72 nmol/g w.w.
NAD^+ concentration in brain homogenate [5]: 491.52 ± 69.61 nmol/g w.w.
NO3 concentration in brain homogenate [5]: 161.99 ± 27.67 nmol/g w.w.
UDP-Gal concentration in brain homogenate [5]: 137.57 ± 9.46 nmol/g w.w.
XANTHINE concentration in brain homogenate [5]: 12.71 ± 3.60 nmol/g w.w.

— patent publication US20220128542A1, “TREATMENT EFFICIENCY EVALUATION” (TX MEDIC AB, priority 2019, published 2022)
